Experimental data from patent publication US7285546B2, “Cephalotaxanes, their method of preparation and their use in treatment of cancers, leukemias, parasites including those resistant to usual chemotherapeutic agents and as reversal agents” (Stragen Pharma S.A., priority 2000, dated 2007).
Converted amounts (≈) assume the structure as drawn. Like-named read-outs stand apart in the source and are kept apart here.

How the values were obtained:
K562 cell line = test: MTT test of structural analogues of harringtonines on K562 cell line; format: cell-based
Protocol: (§1) Structural analogues of harringtonines described in this invention were tested on K562 cell line, derived from chronic myeloid leukemia cells in blastic transformation (bcr-abl positive). The cell line was purchased from ATCC (American Tissue Culture Collection) and grown in RPMI medium supplemented with 10% heat-inactivated fetal calf serum, 2 mmol/L glutamine, […] penicillin and […] streptomycin. All tested products were initially dissolved in […] (pH=2), supplemented with ultrasound treatment during 1 h. Working concentrations were made by dilution in culture medium (pH around 7). Cells in exponential growth phase were placed into 96-microwell plates in concentration 3×10^4/mL (total volume 200 μL/well) and incubated with drugs for 72 h at 37° C. in 5% CO2 humidified atmosphere. Following incubation, 2 μL of MTT solution (Sigma, St. Louis, Mo.) was added to each well. During the following 6 h of incubation at 37° C., the purple formazan product was formed by conversion of the yellow MTT salt in the mitochondria of the viable cells. The resulting precipitate was dissolved in DMSO and the amount of converted MTT was quantified in an ELISA reader (MR 5000, Dynatech). Each product was tested in triplicate (3×8 wells). Every test contained at least one plate with HHT as control, added in the same concentration as the tested products.

K562MRP = test: MTT test on K562MRP, homoharringtonine-resistant subline of K562; format: cell-based; conditions: K562MRP subline resistant to 50 ng/mL homoharringtonine, same method as K562
Protocol: as §1

[1] = Homo sapiens, K562 cell line, 72 h incubation, MTT, read-out: IC50

## CC=CC=CCOC(=O)C[C@](O)(CCCC(C)(C)O)C(=O)O[C@@H]1C(OC)=C[C@]23CCCN2CCc2cc4c(cc2[C@H]13)OCO4 [Example 43, (2′R)-4′-(hexa-2,4-dienyl)-4′-demethyl-homoharringtonine]
K562 cell line; K562 cell line, 72 h incubation, MTT
  IC50: 0.0035 µg/mL (≈ 0.00572 µM)
K562MRP
  IC50: 0.016 µg/mL (≈ 0.0262 µM)

## COC1=C[C@@]23CCCN2CCc2cc4c(cc2[C@@H]3C1OC(=O)[C@@](O)(CCCC(C)(C)O)CC(=O)OCc1ccco1)OCO4 (stereo partly drawn) [Example 83, (2′R)-4′-furfuryl-4′-demethyl-homoharringtonine]
K562 cell line; Homo sapiens, K562, 72 h
  IC50: 0.003 µg/mL (≈ 0.0049 µM)

## CCCCCCOC(=O)C[C@](O)(CCC(C)C)C(=O)OC1C(OC)=C[C@@]23CCCN2CCc2cc4c(cc2[C@H]13)OCO4 (stereo partly shown) [Example 84, (2′ R)-4′-hexanyloxy-4′-demethyldeoxyharringtonine]
K562 cell line; Homo sapiens, K562, 72 h
  IC50: 0.007 µg/mL (≈ 0.012 µM)

## COC1=C[C@@]23CCCN2CCc2cc4c(cc2[C@@H]3C1OC(=O)[C@@](O)(CCCC(C)(C)O)CC(=O)OCc1ccc([N+](=O)[O-])cc1)OCO4 (stereo partly drawn) [Example 85, (2′R)-4′-p-nitrobenzyloxy-4′-demethyl-homoharringtonine]
K562 cell line; Homo sapiens, K562, 72 h
  IC50: 0.018 µg/mL (≈ 0.027 µM)

## COC1=C[C@@]23CCCN2CCc2cc4c(cc2[C@@H]3C1OC(=O)[C@@](O)(CCCC(C)(C)O)CC(=O)OCc1ccc(OC)cc1)OCO4 (stereo partly drawn) [Example 86, (2′R)-4′-p-methoxybenzyloxy-4′-demethyl-homoharringtonine]
K562 cell line; Homo sapiens, K562, 72 h
  IC50: 0.02 µg/mL (≈ 0.0307 µM)

## [2H]C([2H])OC(=O)C[C@](O)(CCCC(C)(C)O)C(=O)OC1C(OC)=C[C@@]23CCCN2CCc2cc4c(cc2[C@H]13)OCO4 (stereo partly drawn) [Example 87, (2′R)-(4′-^2H2)homoharringtonine]
K562 cell line; [1]
  IC50: 0.021 µg/mL (≈ 0.0383 µM)

## COC1=C[C@@]23CCCN2CCc2cc4c(cc2[C@@H]3C1OC(=O)[C@@](O)(CCCC(C)(C)O)CC(=O)OCc1ccccc1OC)OCO4 (stereo partly drawn) [Example 90, (2′R)-4′-o-methoxybenzyloxy-4′-demethyl-homoharringtonine]
K562 cell line; Homo sapiens, K562, 72 h
  IC50: 0.027 µg/mL (≈ 0.0414 µM)

## COC(=O)C[C@](O)(CCC(C)(C)O)C(=O)O[C@@H]1C(OC)=C[C@]23CCCN2CCc2cc4c(cc2[C@H]13)OCO4 [HARRINGTONINE (HHT), harringtonine, reference compound]
K562 cell line; Homo sapiens, K562, 72 h
  IC50: 0.03 µg/mL (≈ 0.0564 µM)

## COC(=O)C[C@](O)(CCCC(C)(C)O)C(=O)O[C@@H]1C(OC)=C[C@]23CCCN2CCc2cc4c(cc2[C@H]13)OCO4 [HOMOHARRINGTONINE, homoharringtonine, reference compound]
K562 cell line; [1]
  IC50: 0.014 µg/mL (≈ 0.0257 µM)
